Experiment [1] has as its system hematopoietic recovery after cyclophosphamide. In words: Hematopoietic recovery after cyclophosphamide (Example 37). Type of experiment: in vivo, Balb/C mice. To be noted: 5 μmoles/mouse/day i.p. 6 days; day 7; vs saline. On the procedure: Twenty-four hours later and each day thereafter for a total of 6 days, mice were given a 0.4 ml i.p. injection of either physiological saline (controls), guanine (5 μmoles/mouse/day), or guanosine (5 μmoles/mouse/day). On day 7 all 10 mice in each of the three groups were bled, and then sacrificed by cervical dislocation. Spleens were removed and weighed, and complete blood cell counts performed.

Experiment [2] shares this test system. As to the kind of experiment: Hematopoietic recovery after cyclophosphamide, acyl chain length (Example 38). Type of experiment: in vivo, Balb/C mice. To be noted: day 7; guanosine 5, acyl derivatives 2.5 μmoles/mouse/day i.p. On the procedure:
Cyclophosphamide (CP) (275 mg/kg, i.p.) was administered to 70 Balb/C female mice weighing approximately 20 grams each. Twenty-four hours later and each day thereafter for a total of 6 days, mice were given a 0.4 ml i.p injection of either physiological saline (controls), Tween 80 (0.2%), guanosine (5 μmoles/mouse/day in 0.2% Tween 80), or 2.5 μmoles per mouse per day of one of the following acylated derivatives of guanosine in 0.2% Tween 80: triacetylguanosine, octanoylguanosine, lauroylguanosine, or palmitoylguanosine. On day 7 following CP administration all 10 animals from each of the 7 groups were bled, and then sacrificed by cervical dislocation. Spleens were removed and weighed, and complete blood counts performed.

The test system of the next experiment is leukocytes. To be noted: 100 mg i.p.; after 10 hours and for 24 hours thereafter; cited from earlier work.
The test system of experiment [3] is human myeloid leukemia cell line (HL-60). To be noted: HL-60 with inducing agents; cited from earlier work.

For the compound `Nc1nc2c(ncn2[C@@H]2O[C@H](CO)[C@@H](O)[C@H]2O)c(=O)[nH]1` [guanosine], in experiment [1], the Neutrophils result is recorded as “significantly more”, the spleen weight result is recorded as “significantly heavier spleens” and the “total white blood cells” value is recorded as “significantly more”. For the same compound, the spleen weight entry in experiment [2] is “No significant difference”. Further, in the experiment with leukocytes, the “leukocyte counts, leukocytosis” value was 11,000 per mm^3. For the same compound, in experiment [3], the “effect on induced maturation of HL-60 cells” value is on record as “prevented their induced maturation into functional neutrophils”.
